Data as given in PubChem BioAssay (NCI).
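Compound exposure: 48 hours, 5 concentrations, 96-well plates. At the TGI there is no net growth.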

Legend:
Assay in all cases: DTP human tumour cell line panel, 48 h
[1] = system: A549 NSCLC
[2] = system: DLD-1 colon
[3] = system: OVCAR-4 ovarian
[4] = system: COLO 205 colon
[5] = system: KM20L2 colon
[6] = system: NCI-H522 lung
[7] = system: HOP-18 NSCLC
[8] = system: SF-295 CNS
[9] = system: SNB-78 CNS
[10] = system: A498 renal
[11] = system: UACC-62 melanoma
[12] = system: M14 melanoma
[13] = system: SNB-75 CNS
[14] = system: ACHN renal
[15] = system: DMS 273 small cell lung
[16] = system: SW-620 colon
[17] = system: SNB-19 CNS
[18] = system: UO-31 renal
[19] = system: IGROV1 ovarian
[20] = system: HL-60(TB) leukemia
[21] = system: 786-0 renal
[22] = system: NCI-H23 lung
[23] = system: LXFL 529 NSCLC
[24] = system: SN12C renal
[25] = system: RPMI-8226 leukemia
[26] = system: DMS 114 small cell lung
[27] = system: OVCAR-5 ovarian
[28] = system: K-562 leukemia
[29] = system: SK-MEL-28 melanoma
[30] = system: MALME-3M melanoma
[31] = system: M19-MEL melanoma
[32] = system: SR leukemia
[33] = system: CCRF-CEM leukemia
[34] = system: TK-10 renal
[35] = system: NCI-H460 lung
[36] = system: OVCAR-3 ovarian
[37] = system: RXF 393 renal
[38] = system: U251 CNS
[39] = system: KM12 colon
[40] = system: SF-539 CNS
[41] = system: HCT-116 colon
[42] = system: HCT-15 colon
[43] = system: MOLT-4 leukemia
[44] = system: LOX IMVI melanoma
[45] = system: HT29 colon
[46] = system: SK-MEL-2 melanoma
[47] = system: UACC-257 melanoma
[48] = system: HOP-62 NSCLC
[49] = system: SK-MEL-5 melanoma
[50] = system: OVCAR-8 ovarian
[51] = system: NCI/ADR-RES ovarian
[52] = system: PC-3 prostate
[53] = system: MCF7 breast
[54] = system: SK-OV-3 ovarian
[55] = system: CAKI-1 renal
[56] = system: HCC-2998 colon
[57] = system: DU-145 prostate
[58] = system: SF-268 CNS
[59] = system: BT-549 breast
[60] = system: MDA-N
[61] = system: MDA-MB-435
[62] = system: HOP-92 NSCLC
[63] = system: T-47D breast
[64] = system: NCI-H226 lung
[65] = system: MDA-MB-231 breast
[66] = system: HS 578T breast
[67] = system: EKVX NSCLC

O=C1/C(=C/c2ccccc2)CN(C(=O)C(F)(F)F)C/C1=C\c1ccccc1 gave a TGI [1] of 12.1 µM, a TGI [2] of 4.27 µM and a TGI [3] of 4.72 µM. The TGI [4] was 5.11 µM, the TGI [5] was 4.34 µM and the TGI [6] was 5.77 µM. It also gave a TGI [7] of 18.4 µM, a TGI [8] of 3.13 µM and a TGI [9] of 11.4 µM. For the same molecule, the TGI [10] was 4.41 µM, the TGI [11] was 3.76 µM and the TGI [12] was 3.29 µM. It also gave a TGI [13] of 19 µM, a TGI [14] of 4.99 µM and a TGI [15] of 2.95 µM. The TGI [16] was 1.83 µM, the TGI [17] was 14.8 µM and the TGI [18] was 4.77 µM. It also gave a TGI [19] of 5.55 µM, a TGI [20] of 2.85 µM and a TGI [21] of 3.28 µM. It also gave a TGI [22] of 4.52 µM, a TGI [23] of 3.26 µM and a TGI [24] of 3.12 µM. It also gave a TGI [25] of 0.932 µM, a TGI [26] of 3.33 µM and a TGI [27] of 8.37 µM. For the same molecule, the TGI [28] was > 100 µM, the TGI [29] was 3.45 µM and the TGI [30] was 15.9 µM. For the same molecule, the TGI [31] was 3.1 µM, the TGI [32] was 5.48 µM and the TGI [33] was 8.03 µM. The TGI [34] was 13.4 µM, the TGI [35] was 2.97 µM and the TGI [36] was 10.7 µM. The TGI [37] was 3.63 µM, the TGI [38] was 2.95 µM and the TGI [39] was 3.98 µM. For the same molecule, the TGI [40] was 4.06 µM, the TGI [41] was 1.08 µM and the TGI [42] was 5.33 µM. It also gave a TGI [43] of 79.6 µM, a TGI [44] of 2.5 µM and a TGI [45] of 3.01 µM. For the same molecule, the TGI [46] was 23.1 µM, the TGI [47] was 3.32 µM and the TGI [48] was 29.6 µM. It also gave a TGI [49] of 3.26 µM and a TGI [50] of 3.37 µM.
Work on CC1CSC(=S)N1C(=O)N1C(=S)SCC1C (centres undefined) yielded a TGI [1] of 91.8 µM, a TGI [2] of 44.4 µM and a TGI [51] of 41.7 µM. For the same molecule, the TGI [4] was 37.2 µM, the TGI [52] was 67.2 µM and the TGI [5] was > 100 µM. For the same molecule, the TGI [6] was 26.7 µM, the TGI [7] was > 100 µM and the TGI [8] was 98.1 µM. For the same molecule, the TGI [9] was > 100 µM, the TGI [10] was 60.7 µM and the TGI [53] was 60.5 µM. The TGI [11] was 27.4 µM, the TGI [12] was 53.9 µM and the TGI [13] was 88.1 µM. The TGI [14] was 36.1 µM, the TGI [54] was > 100 µM and the TGI [55] was 61.7 µM. The TGI [56] was > 80.5 µM, the TGI [15] was 49.5 µM and the TGI [16] was 49.4 µM. For the same molecule, the TGI [17] was > 100 µM, the TGI [57] was 45.2 µM and the TGI [58] was 74.6 µM. It also gave a TGI [18] of 58.7 µM, a TGI [19] of 53.3 µM and a TGI [20] of 88.3 µM. For the same molecule, the TGI [59] was 63.9 µM, the TGI [21] was 53.6 µM and the TGI [22] was 43.1 µM. For the same molecule, the TGI [60] was 50.7 µM, the TGI [23] was > 100 µM and the TGI [61] was 46.6 µM. For the same molecule, the TGI [24] was 54.4 µM, the TGI [25] was 66.2 µM and the TGI [26] was > 100 µM. The TGI [27] was 64.7 µM, the TGI [62] was 73 µM and the TGI [63] was > 100 µM. For the same molecule, the TGI [28] was 60.9 µM, the TGI [64] was 71.7 µM and the TGI [29] was 41.9 µM. The TGI [30] was 45.2 µM, the TGI [65] was 64.8 µM and the TGI [31] was 81.7 µM. The TGI [32] was 59.3 µM, the TGI [33] was 48.5 µM and the TGI [34] was 74.8 µM. The TGI [35] was 59 µM, the TGI [36] was 82.3 µM and the TGI [66] was > 82.9 µM. The TGI [37] was 38.6 µM, the TGI [38] was 53.5 µM and the TGI [67] was 63.4 µM. For the same molecule, the TGI [39] was 84.9 µM, the TGI [40] was 41.4 µM and the TGI [41] was 42.9 µM. The TGI [42] was 34.8 µM, the TGI [43] was 81.9 µM and the TGI [44] was 36.4 µM. It also gave a TGI [45] of 73 µM, a TGI [46] of 53.2 µM and a TGI [47] of 43.4 µM. For the same molecule, the TGI [48] was > 82.8 µM, the TGI [49] was 34.8 µM and the TGI [50] was 32.3 µM.
For Cc1ccccc1-n1c(=O)sc2c(=O)n(-c3ccccc3)c(=S)[nH]c21, the TGI [1] was > 100 µM, the TGI [2] was > 100 µM and the TGI [3] was > 100 µM. The TGI [4] was > 100 µM, the TGI [5] was > 100 µM and the TGI [6] was > 100 µM. For the same molecule, the TGI [7] was > 100 µM, the TGI [8] was > 100 µM and the TGI [9] was > 100 µM. For the same molecule, the TGI [10] was > 100 µM, the TGI [11] was > 100 µM and the TGI [12] was > 100 µM. The TGI [13] was > 100 µM, the TGI [14] was > 100 µM and the TGI [54] was > 100 µM. For the same molecule, the TGI [55] was > 100 µM, the TGI [56] was > 100 µM and the TGI [15] was > 100 µM. For the same molecule, the TGI [16] was > 100 µM, the TGI [17] was > 100 µM and the TGI [58] was > 100 µM. For the same molecule, the TGI [18] was > 100 µM, the TGI [19] was > 100 µM and the TGI [20] was > 100 µM. For the same molecule, the TGI [21] was > 100 µM, the TGI [22] was > 100 µM and the TGI [23] was > 100 µM. The TGI [24] was > 100 µM, the TGI [25] was > 100 µM and the TGI [26] was > 100 µM. The TGI [27] was > 100 µM, the TGI [62] was > 100 µM and the TGI [28] was > 100 µM. The TGI [64] was > 100 µM, the TGI [29] was > 100 µM and the TGI [30] was > 100 µM. The TGI [31] was > 100 µM, the TGI [32] was > 100 µM and the TGI [33] was > 100 µM. The TGI [35] was > 100 µM, the TGI [36] was > 100 µM and the TGI [37] was > 100 µM. For the same molecule, the TGI [38] was > 100 µM, the TGI [67] was > 100 µM and the TGI [39] was > 100 µM. The TGI [40] was > 100 µM, the TGI [41] was > 100 µM and the TGI [42] was > 100 µM. For the same molecule, the TGI [43] was > 100 µM, the TGI [45] was > 100 µM and the TGI [46] was > 100 µM. For the same molecule, the TGI [47] was > 100 µM, the TGI [48] was > 100 µM and the TGI [49] was > 100 µM. The TGI [50] was > 100 µM.
With COc1cc(C(=O)NO)ccc1O the TGI [1] was > 100 µM, the TGI [2] was > 100 µM and the TGI [3] was > 100 µM. The TGI [4] was > 100 µM, the TGI [5] was > 100 µM and the TGI [6] was > 100 µM. For the same molecule, the TGI [7] was > 100 µM, the TGI [8] was > 100 µM and the TGI [9] was > 100 µM. The TGI [10] was > 100 µM, the TGI [11] was > 100 µM and the TGI [12] was > 100 µM. The TGI [13] was > 100 µM, the TGI [14] was > 100 µM and the TGI [54] was > 100 µM. For the same molecule, the TGI [56] was > 100 µM, the TGI [15] was > 100 µM and the TGI [16] was > 100 µM. For the same molecule, the TGI [17] was > 100 µM, the TGI [58] was > 100 µM and the TGI [18] was > 100 µM. The TGI [19] was > 100 µM, the TGI [20] was > 100 µM and the TGI [21] was > 100 µM. For the same molecule, the TGI [22] was > 100 µM, the TGI [23] was > 100 µM and the TGI [24] was > 100 µM. The TGI [25] was > 100 µM, the TGI [26] was > 100 µM and the TGI [27] was > 100 µM. For the same molecule, the TGI [62] was > 100 µM, the TGI [28] was > 100 µM and the TGI [29] was > 100 µM. The TGI [30] was > 100 µM, the TGI [31] was > 100 µM and the TGI [33] was > 100 µM. The TGI [34] was > 100 µM, the TGI [35] was > 100 µM and the TGI [36] was > 100 µM. The TGI [37] was > 100 µM, the TGI [38] was > 100 µM and the TGI [67] was > 100 µM. For the same molecule, the TGI [39] was > 100 µM, the TGI [40] was > 100 µM and the TGI [41] was > 100 µM. For the same molecule, the TGI [42] was > 100 µM, the TGI [43] was > 100 µM and the TGI [44] was > 100 µM. For the same molecule, the TGI [45] was > 100 µM, the TGI [46] was > 100 µM and the TGI [47] was > 100 µM. The TGI [48] was > 100 µM and the TGI [50] was > 100 µM.
